Measurements published in patent US11419335B2, “N-arylated analogues and uses thereof” (University of Florida Research Foundation, Incorporated, priority 2016, dated 2022).
Converted amounts (≈) assume the structure as drawn. Like-named read-outs stand apart in the source and are kept apart here. Marks after values point to notes of the source that are not given here.

Assays:
[1] = system: Pseudomonas aeruginosa (PAO1); test: MIC broth microdilution, PAO1; format: cell-based
Method: (§1) The minimum inhibitory concentration (MIC) for each tested compound was determined by the broth microdilution method as recommended by the Clinical and Laboratory Standards Institute (CLSI). In a 96-well plate, eleven two-fold serial dilutions of each compound were made in a final volume of 100 μL Luria Broth. Each well was inoculated with ˜10^5 bacterial cells at the initial time of incubation, prepared from a fresh log phase culture (OD600 of 0.5 to 1.0 depending on bacterial strain). The MIC was defined as the lowest concentration of compound that prevented bacterial growth after incubating 16 to 18 hours at 37° C. (MIC values were supported by spectrophotometric readings at OD600). DMSO served as our vehicle and negative control in each microdilution MIC assay. DMSO was serially diluted with a top concentration of 1% v/v.
as §1, with “for each compound was” for “for each tested compound was”, “Standards Institute (CLSI).^6 In a” for “Standards Institute (CLSI). In a”, “concentration of test compound that” for “concentration of compound that”, “37° C. The concentration range tested for each compound during this study was 0.10 to 100 μM. DMSO served” for “37° C. (MIC values were supported by spectrophotometric readings at OD600). DMSO served”, “1% v/v. All MIC values were obtained from a minimum of three independent experiments.” for “1% v/v.”

[2] = system: Acinetobacter baumannii (ATCC 1794); test: MIC broth microdilution, A. baumannii 1794; format: cell-based; settings: for MIC A. baumannii 1794: Table 1A
Method: as §1
as §1, with “for each compound was” for “for each tested compound was”, “Standards Institute (CLSI).^6 In a” for “Standards Institute (CLSI). In a”, “concentration of test compound that” for “concentration of compound that”, “37° C. The concentration range tested for each compound during this study was 0.10 to 100 μM. DMSO served” for “37° C. (MIC values were supported by spectrophotometric readings at OD600). DMSO served”, “1% v/v. All MIC values were obtained from a minimum of three independent experiments.” for “1% v/v.”

[3] = system: methicillin-sensitive Staphylococcus aureus ATCC 29213; test: MIC broth microdilution, S. aureus 29213; format: cell-based
Method: as §1, with “The MIC was defined as the lowest concentration of compound that prevented bacterial growth after incubating 16 to 18 hours at 37° C.” left out
(§2) Each well was inoculated with ˜10^5 bacterial cells at the initial time of incubation, prepared from a fresh log phase culture (OD600 of 0.5 to 1.0 depending on bacterial strain). […] The concentration range tested for each compound during this study was 0.10 to 100 μM. DMSO served as our vehicle and negative control in each microdilution MIC assay. DMSO was serially diluted with a top concentration of 1% v/v. All MIC values were obtained from a minimum of three independent experiments.

[4] = system: MRSA BAA-1707; test: MIC broth microdilution, MRSA BAA-1707; format: cell-based, Staphylococcus aureus; settings: for MIC MRSA 1707: Table 4
Method: as §1, with “The MIC was defined as the lowest concentration of compound that prevented bacterial growth after incubating 16 to 18 hours at 37° C.” left out
as §2

[5] = system: methicillin-resistant Staphylococcus aureus MRSA-2 (clinical isolate); test: MIC broth microdilution, MRSA-2; format: cell-based; settings: for MIC: read-out: MIC MRSA-2
Method: as §1
as §1, with “for each compound was” for “for each tested compound was”, “Standards Institute (CLSI).^6 In a” for “Standards Institute (CLSI). In a”, “concentration of test compound that” for “concentration of compound that”, “37° C. The concentration range tested for each compound during this study was 0.10 to 100 μM. DMSO served” for “37° C. (MIC values were supported by spectrophotometric readings at OD600). DMSO served”, “1% v/v. All MIC values were obtained from a minimum of three independent experiments.” for “1% v/v.”

[6] = system: vancomycin-resistant Enterococcus faecium (VRE strain ATCC 700221); test: MIC broth microdilution, VRE 700221; format: cell-based; settings: for MIC E. faecium VRE 700221: Table 1A
Method: as §1
as §1, with “for each compound was” for “for each tested compound was”, “Standards Institute (CLSI).^6 In a” for “Standards Institute (CLSI). In a”, “concentration of test compound that” for “concentration of compound that”, “37° C. The concentration range tested for each compound during this study was 0.10 to 100 μM. DMSO served” for “37° C. (MIC values were supported by spectrophotometric readings at OD600). DMSO served”, “1% v/v. All MIC values were obtained from a minimum of three independent experiments.” for “1% v/v.”

[7] = system: methicillin-resistant Staphylococcus epidermidis (MRSE strain ATCC 35984); test: MIC broth microdilution, MRSE 35984; format: cell-based; settings: for MIC S. epidermidis MRSE 35984: Table 1A
Method: as §1
as §1, with “for each compound was” for “for each tested compound was”, “Standards Institute (CLSI).^6 In a” for “Standards Institute (CLSI). In a”, “concentration of test compound that” for “concentration of compound that”, “37° C. The concentration range tested for each compound during this study was 0.10 to 100 μM. DMSO served” for “37° C. (MIC values were supported by spectrophotometric readings at OD600). DMSO served”, “1% v/v. All MIC values were obtained from a minimum of three independent experiments.” for “1% v/v.”

## CCCCCCCCCCCCCCCCn1cc[n+](-c2ccc(Oc3ccccc3)cc2)c1C.[Br-] [Compound 5]
[1]; Table 4
  MIC PAO1: >100 µM
[2]; Table 4
  MIC A. bau. 1794: 37.5a micromolar
[3]; Table 1B
  MIC S. aureus 29213: 4.69^a μM
[3]; Table 3
  MIC S. aureus 29213: 4.69^a μM
[4]; Table 1B
  MIC MRSA BAA-1707: 4.69^a μM
[4]; Table 3
  MIC MRSA BAA-1707: 4.69^a μM
[4]
  MIC MRSA 1707: 4.69a micromolar
[5]; Table 1B
  MIC MRSA-2: 4.69^a μM
[5]; Table 3
  MIC MRSA-2: 4.69^a μM
[5]; Table 4
  MIC MRSA-2: 4.69a micromolar

## CCCCCCCCCCCCCCCCn1cc[n+](-c2ccc(OC(F)(F)F)cc2)c1C.[Br-] [Compound 7]
[1]; Table 4
  MIC PAO1: >100 µM
[2]; Table 4
  MIC A. bau. 1794: 18.8a micromolar
[3]; Table 1B
  MIC S. aureus 29213: 2.35^a μM
[3]; Table 3
  MIC S. aureus 29213: 2.35^a μM
[4]; Table 1B
  MIC MRSA BAA-1707: 4.69^a μM
[4]; Table 3
  MIC MRSA BAA-1707: 4.69^a μM
[4]
  MIC MRSA 1707: 4.69a micromolar
[5]; Table 1B
  MIC: 3.13 µM
[5]; Table 3
  MIC: 3.13 µM
[5]; Table 4
  MIC MRSA-2: 3.13 µM

## C=CC[n+]1ccn(CCCCCCCCCCCCCCCC)c1C.[Br-] [Compound 10]
[6]
  MIC E. faecium VRE 700221: 2.35^a
[6]; Table 4
  MIC VRE 700221: 2.35a micromolar
[1]; Table 1A
  MIC PAO1: > 100 µM
[1]; Table 4
  MIC PAO1: >100 µM
[2]
  MIC A. baumannii 1794: 9.38^a
[2]; Table 4
  MIC A. bau. 1794: 9.38a micromolar
[7]
  MIC S. epidermidis MRSE 35984: 0.78 µM
[7]; Table 4
  MIC MRSE 35984: 0.78 µM
[5]; Table 1A
  MIC MRSA-2: 2.35^a
[5]; Table 4
  MIC MRSA-2: 2.35a micromolar

## CCCCCCCCCCCCCCCCn1cc[n+](Cc2ccc(C(C)C)cc2)c1C.[Br-] [Compound 12]
[6]
  MIC E. faecium VRE 700221: 3.13 µM
[6]; Table 4
  MIC VRE 700221: 3.13 µM
[1]; Table 1A
  MIC PAO1: > 100 µM
[1]; Table 4
  MIC PAO1: >100 µM
[2]; in µM
  MIC A. baumannii 1794: >100
[2]; Table 4
  MIC A. bau. 1794: >100 µM
[7]
  MIC S. epidermidis MRSE 35984: 2.35^a
[7]; Table 4
  MIC MRSE 35984: 2.35a micromolar
[5]; Table 1A
  MIC MRSA-2: 6.25 µM
[5]; Table 4
  MIC MRSA-2: 6.25 µM

## CCCCCCCCCCCCCCCCn1cc[n+](Cc2ccc(C(C)(C)C)cc2)c1C.[Br-] [Compound 13]
[6]
  MIC E. faecium VRE 700221: 4.69^a
[6]; Table 4
  MIC VRE 700221: 4.69a micromolar
[1]; Table 1A
  MIC PAO1: > 100 µM
[1]; Table 4
  MIC PAO1: >100 µM
[2]; in µM
  MIC A. baumannii 1794: >100
[2]; Table 4
  MIC A. bau. 1794: >100 µM
[7]
  MIC S. epidermidis MRSE 35984: 9.38^a
[7]; Table 4
  MIC MRSE 35984: 9.38a micromolar
[5]; Table 1A
  MIC MRSA-2: 12.5 µM
[5]; Table 4
  MIC MRSA-2: 12.5 µM

## CCCCCCCCCCCCCCCCn1cc[n+](Cc2ccc(Br)cc2)c1C.[Br-] [Compound 14]
[6]
  MIC E. faecium VRE 700221: 4.69^a
[6]; Table 4
  MIC VRE 700221: 4.69a micromolar
[1]; Table 1A
  MIC PAO1: > 100 µM
[1]; Table 4
  MIC PAO1: >100 µM
[2]; in µM
  MIC A. baumannii 1794: >100*
[2]; Table 4
  MIC A. bau. 1794: >100 µM
[7]
  MIC S. epidermidis MRSE 35984: 6.25 µM
[7]; Table 4
  MIC MRSE 35984: 6.25 µM
[5]; Table 1A
  MIC MRSA-2: 6.25 µM
[5]; Table 4
  MIC MRSA-2: 6.25 µM

## CCCCCCCCCCCCCCCCn1cc[n+](Cc2cc(C(F)(F)F)cc(C(F)(F)F)c2)c1C.[Br-] [Compound 19]
[6]
  MIC E. faecium VRE 700221: 9.38^a
[6]; Table 4
  MIC VRE 700221: 9.38a micromolar
[1]; Table 1A
  MIC PAO1: > 100 µM
[1]; Table 4
  MIC PAO1: >100 µM
[2]; in µM
  MIC A. baumannii 1794: >100
[2]; Table 4
  MIC A. bau. 1794: >100 µM
[7]; Table 4
  MIC MRSE 35984: 12.5 µM
[5]; Table 1A
  MIC MRSA-2: 12.5 µM
[5]; Table 4
  MIC MRSA-2: 12.5 µM

## CCCCCCCCCCCCCCCCn1cc[n+](Cc2cc(Br)cc(Br)c2)c1C.[Br-] [Compound 20]
[6]
  MIC E. faecium VRE 700221: 6.25 µM
[6]; Table 4
  MIC VRE 700221: 6.25 µM
[1]; Table 1A
  MIC PAO1: > 100 µM
[1]; Table 4
  MIC PAO1: >100 µM
[2]; in µM
  MIC A. baumannii 1794: >100
[2]; Table 4
  MIC A. bau. 1794: >100 µM
[7]
  MIC S. epidermidis MRSE 35984: 12.5 µM
[7]; Table 4
  MIC MRSE 35984: 12.5 µM
[5]; Table 1A
  MIC MRSA-2: 37.5 µM
[5]; Table 4
  MIC MRSA-2: 37.5 µM

## Cc1nccn1Cc1ccccc1 [Compound 22]
[6]
  MIC E. faecium VRE 700221: > 100 µM
[6]; Table 4, read-out: MIC VRE 700221
  MIC: > 100 µM
[1]; Pseudomonas aeruginosa, PAO1, Table 4
  MIC: > 100 µM
[1]; Table 1A
  MIC PAO1: > 100 µM
[2]; Acinetobacter baumannii, ATCC1794, Table 4, read-out: MIC A. bau. 1794
  MIC: > 100 µM
[2]; in µM
  MIC A. baumannii 1794: >100
[7]; Staphylococcus epidermidis, Table 4, read-out: MIC MRSE 35984
  MIC: > 100 µM
[7]
  MIC S. epidermidis MRSE 35984: > 100 µM
[5]; Staphylococcus aureus, MRSA, Table 4
  MIC: > 100 µM
[5]; Table 1A
  MIC MRSA-2: > 100 µM

## CCCCCCCCCCCCCCCCn1ccnc1C [Compound 23, 1-hexadecyl-2-methyl-1H-imidazole]
[6]
  MIC E. faecium VRE 700221: 2.35^a
[1]; Table 1A
  MIC PAO1: > 100 µM
[2]; in µM
  MIC A. baumannii 1794: >100
[7]
  MIC S. epidermidis MRSE 35984: 3.13 µM (≈ 0.959 µg/mL)
[5]; Table 1A
  MIC MRSA-2: 6.25 µM (≈ 1.92 µg/mL)

## CCCCCCCCCCCCCCCCn1c(C)[n+](Cc2cccc(OC)c2)c2ccccc21.[Br-] [Compound 26]
[6]
  MIC E. faecium VRE 700221: 1.56 µM
[6]; Table 4
  MIC VRE 700221: 1.56 µM
[1]; Table 1A
  MIC PAO1: > 100 µM
[1]; Table 4
  MIC PAO1: >100 µM
[2]; in µM
  MIC A. baumannii 1794: >100
[2]; Table 4
  MIC A. bau. 1794: >100 µM
[7]
  MIC S. epidermidis MRSE 35984: 6.25 µM
[7]; Table 4
  MIC MRSE 35984: 6.25 µM
[5]; Table 1A
  MIC MRSA-2: 3.13 µM
[5]; Table 4
  MIC MRSA-2: 3.13 µM

## CCCCCCCCCCCCCCCCn1c(C)[n+](Cc2cccc(F)c2)c2ccccc21.[Br-] [Compound 27]
[6]
  MIC E. faecium VRE 700221: 3.13 µM
[6]; Table 4
  MIC VRE 700221: 3.13 µM
[1]; Table 1A
  MIC PAO1: > 100 µM
[1]; Table 4
  MIC PAO1: >100 µM
[2]; in µM
  MIC A. baumannii 1794: >100
[2]; Table 4
  MIC A. bau. 1794: >100 µM
[7]
  MIC S. epidermidis MRSE 35984: 9.38^a
[7]; Table 4
  MIC MRSE 35984: 9.38a micromolar
[5]; Table 1A
  MIC MRSA-2: 6.25 µM
[5]; Table 4
  MIC MRSA-2: 6.25 µM
